The values that follow come from patent US12280132B2, “Skin care composition” (The Procter & Gamble Company, priority 2021, dated 2025).

Series [1] in a line: HCA Crystallization, freeze/thaw temperature cycling. Type of series: physicochemical. Particulars: Table 7; hydrotrope at stated level in 0.5% 4-HCA composition, formula pH 3.8. The source says: This method provides a way to determine HCA solubility in a composition by observing HCA crystals in situ. The method involves cycling the temperature of a test sample between freezing and thawing to imitate environmental conditions experienced by a skin care composition at an accelerated rate. This type of accelerated aging is commonly used in cosmetic product stability testing. HCA crystals can be detected using conventional means such as visual observation and microscopy.
A bulk sample of at least 10 g (e.g., 20 g-60 g) of the composition to be tested is placed in a suitable container that enables visual observation of the test sample (e.g., transparent plastic or glass jar). The test sample is subjected to 1 month of freeze/thaw temperature cycling to simulate environmental conditions that a skin care product may experience during shipping and storage. This is sometimes referred to as accelerated aging. The temperature cycling involves a 1-week freeze cycle at −7° C., followed by a 1-week thaw cycle at 25° C., and then repeating this freeze/cycle for a total temperature cycling time of 1 month.
Upon completion of the accelerated aging process (i.e., 1 month of temperature cycling), transparent test samples are visually inspected in-situ in the transparent container to determine if HCA crystallization/precipitation occurred. For opaque and translucent samples, the entire test sample is removed from the container and transferred to a suitable transparent substrate (e.g., plastic film or glass plate) and formed into a thin film of no more than 1 mm thickness. The sample is covered with a second transparent substrate to inhibit the loss of volatile ingredients during inspection. A light source (e.g., LED lamp or the like) is used to backlight the sample to aid in visual inspection. HCA crystals will generally appear as a precipitate in the composition visible to the naked eye when observed by someone with 20/20 vision from 45 cm away. Any precipitate identified during visual observation may be further evaluated using a microscope capable of providing fluorescent birefringence observation with cross-polarized light to identify anisotropic crystals. Any anisotropic crystal that has a longest dimension of greater than 0.1 mm is identified as an HCA crystal and the total number of HCA crystals is recorded. A test sample that contains no more than 1 HCA crystal is considered to be “free of HCA crystals” and is recorded as a “pass.” A test sample that contains more than 1 HCA crystal, is recorded as a “fail.”
While it is desirable to formulate HCA containing compositions at lower pH to reduce 4-VP production and yellowing, the solubility of the HCA at low pH may not be sufficient for it to be added at levels needed for an effective skin care active.
The test compositions shown in Table 8 were subjected to 2 freeze/thaw cycles at −7C/25C for 1 week/1 week, totaling one month of temperature cycling.
The test compositions are shown below in Table 9. The test compositions were subjected to 2 freeze/thaw cycles at −7C/25C and 1 week/1 week, followed by a 90-day rest period at 25° C. After completion of the incubation period, the compositions were examined for the presence of HCA crystals, as described above.

For series [2] the following is noted: Table 7, hydrotropes; cited from earlier work.
Series [3] in a line: Color method: change in yellowness (Δb*) after accelerated aging. Type of series: physicochemical. The text has this: This method can be used to determine the change in color of a product, material, or target portion of skin. A spectrophotometer (e.g., Spectrophotometer CM-3600A, Konica Minolta, Japan, or equivalent) is used to measure spectrometric data for CIE (International Commission on Illumination) specified illuminating and viewing conditions, and compute the associated tristimulus values, XYZ, based on CIE observer and a CIE illuminant standards. The ASTM standard for obtaining spectrometric data for Object-Color Evaluation is ASTM E1164-12(2017)el with the values and procedures for computing CIE tristimulus values from spectrometric data outlined in ASTM […]. The CIELAB color scale, also referred to as L*a*b*, are calculated from the tristimulus values as defined in ASTM […]. The L* denotes the sample's perceptual lightness. […] Portion samples are evaluated using a 10 mm path length in a plastic cell (e.g., CM-A131, Konica Minolta, Japan or equivalent), reflectance measurement, a 25.4 mm aperture opening at the specimen surface, and specular component excluded conditions with a standard white background. […] Synergy factor is calculated by dividing the observed value by the expected value. […]

Consider `O=C(O)c1cccc(O)c1O` [2,3-Dihydroxybenzoic acid], for which the Crystallization entry in series [1] is “Pass (A test sample that contains no more than 1 HCA crystal is considered to be “free of HCA crystals” and is recorded as a “pass.”)”. The pKA in series [2] was 2.56. Turning to `O=C(O)c1ccc(O)cc1O` [2,4-Dihydroxybenzoic Acid], the Crystallization entry in series [1] is “Pass (A test sample that contains no more than 1 HCA crystal is considered to be “free of HCA crystals” and is recorded as a “pass.”)”.

Regarding `O=C(O)c1ccc(O)c(O)c1` [3,4-Dihydroxybenzoic Acid, reference compound], in series [1], the Crystallization result is recorded as “Fail (A test sample that contains more than 1 HCA crystal, is recorded as a “fail.”)”. The pKA in series [2] was 4.16. Consider `COc1cccc(C(=O)O)c1O` [3-Methoxysalicylic acid], for which the Crystallization result in series [1] was “Pass (A test sample that contains no more than 1 HCA crystal is considered to be “free of HCA crystals” and is recorded as a “pass.”)”. Moreover, in series [2], the pKA is recorded as 2.55. Regarding `O=C([O-])C=Cc1ccccc1.[Na+]` [Sodium Cinnamate, reference compound], the Crystallization entry in series [1] is “Fail (A test sample that contains more than 1 HCA crystal, is recorded as a “fail.”)”. In the case of `O=C([O-])c1ccccc1O.[Na+]` [Sodium salicylate], the Crystallization result in series [1] was “Pass (A test sample that contains no more than 1 HCA crystal is considered to be “free of HCA crystals” and is recorded as a “pass.”)”. Take `O=S([O-])S(=O)(=O)[O-].[Na+].[Na+]` [sodium metabisulfite]: the “enhancement of effect of the oxygen quenching reducing agent at low pH vs. neutral pH” value was found to be 240% in series [3] (3M40C) and 20% in series [3] (3W50C (printed 3WSOC)).
